Experimental data reported in US20240336608A1, “IL4I1 INHIBITORS AND METHODS OF USE” (Merck Sharp & Dohme LLC, priority 2023, published 2024).

Target: T1, recombinant IL4I1 (Homo sapiens, UniProt Q96RQ9)
T1 construct: purchased R&D Systems 5684-AO-020
T1 sequence (Q96RQ9 22-567): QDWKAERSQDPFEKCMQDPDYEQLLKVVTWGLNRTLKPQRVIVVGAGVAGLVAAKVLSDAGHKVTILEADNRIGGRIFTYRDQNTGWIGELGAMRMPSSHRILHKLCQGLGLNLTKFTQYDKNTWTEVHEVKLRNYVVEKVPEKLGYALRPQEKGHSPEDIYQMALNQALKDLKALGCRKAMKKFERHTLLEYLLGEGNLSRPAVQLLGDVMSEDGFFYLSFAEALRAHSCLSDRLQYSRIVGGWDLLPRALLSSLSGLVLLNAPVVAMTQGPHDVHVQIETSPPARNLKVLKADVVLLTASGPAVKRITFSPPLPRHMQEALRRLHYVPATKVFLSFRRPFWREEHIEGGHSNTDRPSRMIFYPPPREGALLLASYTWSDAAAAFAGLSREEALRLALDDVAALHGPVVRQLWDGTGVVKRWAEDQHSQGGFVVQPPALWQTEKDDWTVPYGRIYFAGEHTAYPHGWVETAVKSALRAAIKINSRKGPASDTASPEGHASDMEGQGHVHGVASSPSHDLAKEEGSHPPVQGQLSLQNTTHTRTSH
Test: IL4I1 Enzymatic Assay (Amplex Red/HRP coupled detection of H2O2, fluorescence)
Assay type: biochemical
Conditions: 1 nM recombinant IL4I1; four-hour pre-incubation with compound; 1 mM each Phe, Tyr, Trp; ten-point titration
Experimental: Interleukin 4 inducible protein 1 (IL4I1) is an L-amino oxidase that catalyzes the oxidation of aromatic residues (Phe, Trp and Tyr): L-amino acid+H2O+O2→2-oxo acid+NH3+H2O2. Equal molar of H2O2 and the corresponding alpha-ketoacid are produced when IL4I1 and substrate are added. In this assay, the hydrogen peroxide generated by IL4I1 is then detected through a coupled reaction with Amplex Red (10-acetyl-3,7-dihydroxyphenoxazine) and […] (HRP) to produce Resorufin product that could be detected in the form of fluorescence signals. The assessment of the inhibitory effect of small molecules (EC50) on IL4I1 is measured by the effectiveness of the compounds to inhibit the production of H202.
Using this assay, the potency (EC50) of each compound was determined from a ten-point (1:3 serial dilution) titration curve using the following outlined procedure. To each well of a black flat-bottom Greiner (Cat #781076) 384 well-plate, 125 nL of compound (0.5% DMSO in final assay volume of 25 μL) was dispensed, followed by the addition of 12.5 μL of 1× assay buffer (50 mM Hepes 7.0 and 0.005% Tween20 (Sigma, Cat #P8341; low peroxide grade)) containing 2 nM of recombinant IL4I1 (R&D Systems, Cat #5684-AO-020). Plates were placed in an ambient temperature humidified chamber for a four-hour pre-incubation with compound. Subsequently, each reaction was initiated by the addition of 12.5 μL 1× assay buffer containing 2 mM of each aromatic amino acids (Phe/Tyr/Trp), 0.1 mM Amplex Red and 2 U/mL of HRP. The final reaction in each well of 25 μL consists of 1 nM of IL4I1, 1 mM of each residue (Phe, Tyr and Trp), 0.05 mM Amplex Red and 1 U/mL of HRP. It should be noted that the concentrations of Amplex Red and HRP used here are in excess such that the conversion of H2O2 to Resorufin product occurs instantaneously and non-rate limiting. Reactions were allowed to proceed for 120 minutes followed by fluorescence readout on a Spectramax with the following set parameters: 544 nm excitation/590 nm emission, 570 nm cutoff (EnVision is an alternative reader). Dose-response curves were generated by plotting percent effect (% inhibition; Y-axis) vs. Log10 compound concentrations (X-axis). EC50 values were calculated using a non-linear regression, four-parameters sigmoidal dose-response model and are shown in Table 16.

Row | SMILES | EC50 [nM]
1 | O=C(NCc1nnc(-c2ccccc2)s1)c1cn(Cc2cn[nH]c2)nn1 [Example 164, 1-((1H-pyrazol-4-yl)methyl)-N-((5-phenyl-1,3,4-thiadiazol-2-yl)methyl)-1H-1,2,3-triazole-4-carboxamide] | 17
2 | Cc1c(C(=O)NCc2nnc(-c3ccccc3)s2)oc2cccc(O)c12 [Example 20, 4-hydroxy-3-methyl-N-[(5-phenyl-1,3,4-thiadiazol-2-yl)methyl]benzofuran-2-carboxamide] | 340
3 | CC(C)c1cc(C(=O)NCc2nnc(-c3ccccc3)s2)n[nH]1 [Example 2, 5-isopropyl-N-[(5-phenyl-1,3,4-thiadiazol-2-yl)methyl]-1H-pyrazole-3-carboxamide] | 197
4 | O=C(NCc1nnc(-c2ccccc2)s1)c1cn(C2CCCC(O)C2)nn1 (centres unmarked) [Example 206, 1-(3-hydroxycyclohexyl)-N-((5-phenyl-1,3,4-thiadiazol-2-yl)methyl)-1H-1,2,3-triazole-4-carboxamide] | 226
5 | COc1c(C(=O)NCc2nnc(-c3ccccc3)s2)csc1Cl [Example 41, 5-chloro-4-methoxy-N-[(5-phenyl-1,3,4-thiadiazol-2-yl)methyl]thiophene-3-carboxamide] | 59
6 | Cc1nc(N)ccc1-n1cc(C(=O)NCc2nnc(-c3ccccc3)s2)nn1 [Example 342, 1-(6-amino-2-methylpyridin-3-yl)-N-((5-phenyl-1,3,4-thiadiazol-2-yl)methyl)-1H-1,2,3-triazole-4-carboxamide] | 5
7 | O=C(NCc1nnc(-c2ccccc2)s1)c1cn(C23CC(F)(C2)C3)nn1 [Example 173, 1-(3-fluorobicyclo[1.1.1]pentan-1-yl)-N-((5-phenyl-1,3,4-thiadiazol-2-yl)methyl)-1H-1,2,3-triazole-4-carboxamide] | 334
8 | CS(=O)(=O)Cn1cc(C(=O)NCc2nnc(-c3ccccc3)s2)nn1 [Example 308, 1-((methylsulfonyl)methyl)-N-((5-phenyl-1,3,4-thiadiazol-2-yl)methyl)-1H-1,2,3-triazole-4-carboxamide] | 75
9 | COCCCn1cc(C(=O)NCc2nnc(-c3ccccc3)s2)nn1 [Example 96, 1-(3-methoxypropyl)-N-((5-phenyl-1,3,4-thiadiazol-2-yl)methyl)-1H-1,2,3-triazole-4-carboxamide] | 16
10 | COc1cc(C(=O)NCc2nnc(-c3ccccc3)s2)on1 [Example 58, 3-methoxy-N-[(5-phenyl-1,3,4-thiadiazol-2-yl)methyl]isoxazole-5-carboxamide] | 92
11 | CCOCCn1cc(C(=O)NCc2nnc(-c3ccccc3)s2)nn1 [Example 91, 1-(2-ethoxyethyl)-N-((5-phenyl-1,3,4-thiadiazol-2-yl)methyl)-1H-1,2,3-triazole-4-carboxamide] | 27
12 | O=C(NCc1nnc(-c2ccccc2)s1)c1cn(CC(O)CO)nn1 (centres unmarked) [Example 191, 1-(2,3-dihydroxypropyl)-N-((5-phenyl-1,3,4-thiadiazol-2-yl)methyl)-1H-1,2,3-triazole-4-carboxamide] | 12
13 | O=C(NCc1nnc(-c2ccccc2)s1)c1cn(C2CCC2)nn1 [Example 68, 1-cyclobutyl-N-((5-phenyl-1,3,4-thiadiazol-2-yl)methyl)-1H-1,2,3-triazole-4-carboxamide] | 17
14 | CCOc1ccsc1C(=O)NCc1nnc(-c2ccccc2)s1 [Example 8, 3-ethoxy-N-[(5-phenyl-1,3,4-thiadiazol-2-yl)methyl]thiophene-2-carboxamide] | 3
15 | O=C(NCc1nnc(-c2ccccc2)s1)c1cn(C2CC2(F)F)nn1 (single isomer, unassigned) [Example 130, 1-(2,2-difluorocyclopropyl)-N-((5-phenyl-1,3,4-thiadiazol-2-yl)methyl)-1H-1,2,3-triazole-4-carboxamide] | 5
16 | Cn1ccc(C(=O)NCc2nnc(-c3ccccc3)s2)c1 [Example 51, 1-methyl-N-[(5-phenyl-1,3,4-thiadiazol-2-yl)methyl]pyrrole-3-carboxamide] | 118
17 | Cn1cc(C(=O)NCc2cc(-c3ccc(Cl)cc3)no2)nn1 [Example 217, N-{[3-(4-chlorophenyl)-1,2-oxazol-5-yl]methyl}-1-methyl-1H-1,2,3-triazole-4-carboxamide] | 648
18 | C[C@H](O)Cn1cc(C(=O)NCc2nnc(-c3ccccc3)s2)nn1 [Example 128, (S)-1-(2-hydroxypropyl)-N-((5-phenyl-1,3,4-thiadiazol-2-yl)methyl)-1H-1,2,3-triazole-4-carboxamide] | 27
19 | Cc1ccc(-n2cc(C(=O)NCc3ccc(C4CCCCC4)nn3)nn2)c(C)n1 [Example 326, N-((6-cyclohexylpyridazin-3-yl)methyl)-1-(2,6-dimethylpyridin-3-yl)-1H-1,2,3-triazole-4-carboxamide] | 263
20 | CC(C#N)n1cc(C(=O)NCc2cc(-c3ccncc3)no2)nn1 (single isomer, unassigned) [Example 285, 1-(1-cyanoethyl)-N-((3-(pyridin-4-yl)isoxazol-5-yl)methyl)-1H-1,2,3-triazole-4-carboxamide] | 184
21 | COc1ccc(-n2cc(C(=O)NCc3nnc(-c4ccccc4)s3)nn2)c(C)n1 [Example 229, 1-(6-methoxy-2-methylpyridin-3-yl)-N-((5-phenyl-1,3,4-thiadiazol-2-yl)methyl)-1H-1,2,3-triazole-4-carboxamide] | 8
22 | O=C(NCc1nnc(-c2ccccc2)s1)c1cnnn1C1CCOC1 (centres unmarked) [Example 306, N-((5-phenyl-1,3,4-thiadiazol-2-yl)methyl)-1-(tetrahydrofuran-3-yl)-1H-1,2,3-triazole-5-carboxamide] | 654
23 | O=C(NCc1nnc(-c2ccccc2)s1)c1cn(C2C3COCC32)nn1 (centres unmarked) [Example 200, 1-(3-oxabicyclo[3.1.0]hexan-6-yl)-N-((5-phenyl-1,3,4-thiadiazol-2-yl)methyl)-1H-1,2,3-triazole-4-carboxamide] | 537
24 | Cc1ccc(-n2cc(C(=O)NCc3nnc(-c4cncs4)s3)nn2)c(C)n1 [Example 298, 1-(2,6-dimethylpyridin-3-yl)-N-((5-(thiazol-5-yl)-1,3,4-thiadiazol-2-yl)methyl)-1H-1,2,3-triazole-4-carboxamide] | 14
25 | O=C(NCc1nnc(-c2ccccc2)s1)c1cn(C2(C(F)(F)F)CC2)nn1 [Example 153, N-((5-phenyl-1,3,4-thiadiazol-2-yl)methyl)-1-(1-(trifluoromethyl)cyclopropyl)-1H-1,2,3-triazole-4-carboxamide] | 593
26 | CC(F)(F)Cn1cc(C(=O)NCc2nnc(-c3ccccc3)s2)nn1 [Example 211, 1-(2,2-difluoropropyl)-N-((5-phenyl-1,3,4-thiadiazol-2-yl)methyl)-1H-1,2,3-triazole-4-carboxamide] | 14
27 | O=C(NCc1nnc(-c2ccccc2)s1)c1cn(CCCC(F)(F)F)nn1 [Example 98, N-((5-phenyl-1,3,4-thiadiazol-2-yl)methyl)-1-(4,4,4-trifluorobutyl)-1H-1,2,3-triazole-4-carboxamide] | 272
28 | C[C@H](O)[C@@H](C)n1cc(C(=O)NCc2nnc(-c3ccccc3)s2)nn1 [Example 169, 1-((2R,3S)-3-hydroxybutan-2-yl)-N-((5-phenyl-1,3,4-thiadiazol-2-yl)methyl)-1H-1,2,3-triazole-4-carboxamide] | 68
29 | Cc1ccc(-n2cc(C(=O)NCc3nnc(-c4ccccc4)s3)nn2)c(C)n1 [Example 1, 1-(2,6-dimethylpyridin-3-yl)-N-((5-phenyl-1,3,4-thiadiazol-2-yl)methyl)-1H-1,2,3-triazole-4-carboxamide] | 15
